Data published in ChEMBL document CHEMBL1221341, “[17(20)E]- and [17(20)Z]-pregna-5,17(20)-dien-21-oylamides. Facile synthesis and primary evaluation for cancer cells proliferation” (Bioorg Med Chem Lett, 2010).
Active and inactive are the calls of the source. The calls are words filed in the database; no cut-off is given here.

Columns and labels:
Assay type in all cases: functional, cell-based
[1] = system: LNCaP; test: Antiproliferative activity against human LNCAP cells at 0.1 to 0.3 uM after 48 hrs by MTT assay
[2] = system: MCF7; test: Antiproliferative activity against human MCF7 cells at 0.1 to 0.3 uM after 48 hrs by MTT assay
[3] = system: MCF7; test: Antiproliferative activity against human MCF7 cells at 30 uM after 48 hrs by MTT assay
[4] = system: LNCaP; test: Antiproliferative activity against human LNCAP cells at 30 uM after 48 hrs by MTT assay

Structure (SMILES): C[C@]12CC[C@H](O)CC1=CC[C@@H]1[C@@H]2CC[C@]2(C)/C(=C/C(=O)N3CCCC3)CC[C@@H]12
- Activity [1]: Active

Structure (SMILES): C[C@]12CC[C@H](O)CC1=CC[C@@H]1[C@@H]2CC[C@]2(C)/C(=C/C(=O)NCCO)CC[C@@H]12
- Activity [2]: inactive
- Activity [1]: inactive
- Activity [3]: Active
- Activity [4]: Active

Structure (SMILES): C[C@]12CC[C@H](O)CC1=CC[C@@H]1[C@@H]2CC[C@]2(C)/C(=C/C(N)=O)CC[C@@H]12
- Activity [2]: inactive
- Activity [1]: inactive
- Activity [3]: Active
- Activity [4]: Active

Structure (SMILES): C[C@]12CC[C@H](O)CC1=CC[C@@H]1[C@@H]2CC[C@]2(C)/C(=C\C(=O)N3CCCC3)CC[C@@H]12
- Activity [2]: inactive
